Like-named read-outs stand apart in the source and are kept apart here.
Tests used:
[1] = molecular target: T1, interaction of ICAM-1 with the Leukointegrin CD18/CD11a (LFA-1) (Homo sapiens, UniProt P05107+P20701); assay: Assay to determine inhibition of LFA-1 binding to ICAM-1 (immunopurified LFA-1 on plate-bound sICAM-1, ELISA readout)
T1 construct: endogenous in cells; sICAM-1: made in house, secreted from transfected CHO DUX cells
Source text: Assay to Determine Inhibition of LFA-1 Binding to ICAM-1 Purpose of Assay: This assay protocol is designed to study the direct antagonism, by a test compound, of the interaction of the CAM, ICAM-1 with the Leukointegrin CD18/CD11a (LFA-1). […] After collection and neutralization of fractions from the TS2/4 column, samples are pooled and precleared with Protein G agarose. […] Wells are washed 3 times with Diluting Buffer. The bound LFA-1 is detected by the addition of a polyclonal antibody directed against a peptide corresponding to the CD18 cytoplasmic tail in a 1:100 dilution with Diluting Buffer and 1% BSA and allowed to incubate for 45 min at 37° C. Wells are washed 3 times with Diluting Buffer and the bound polyclonal antibody is detected by the addition of a 1:4000 dilution of horse radish peroxidase conjugated to goat immunoglobulin directed against rabbit immunoglobulin. […] The lack of the addition of LFA-1 to the binding assay is used as a background control for all samples. A dose-response curve is obtained for all test compounds. Results of these tests are reported as Kd's in μM.

[2] = tested on: cell bound form of LFA-1 (CD18, CD11a) with ICAM-1, SKW3 cells; assay: Inhibition of SKW3 cell binding to ICAM-1 (PMA-stimulated); type: cell-based, human; conditions: Homo sapiens, read-out: Assay to Detect SKW3 Cells Binding to ICAM IC50
Source text: (§1) Assay to Determine Inhibition of SKW3 cell binding to ICAM-1 vs. Binding to Fibronectin
(§2) This assay is used to test the selective ability of a test compound to antagonize the interaction of a cell bound form of LFA-1 with ICAM-1. The assay uses a human T cell line, SKW3 cells which express CD18, CD11a and other integrins not related to CD18, CD11a and which can be “activated” by phorbol esters. Phorbol esters enhance the affinity of CD18, CD11a for ICAM-1.
(§3) This same lymphocyte line, SKW3, also adheres to fibronectin in the presence of phorbol esters. This adhesion is mediated by membrane proteins independent of the LFA-1/ICAM-1 interaction. The SKW3 cells express another integrin, VLA4, which is the receptor for fibronectin. Therefore, as a preliminary indication of the selectivity of a test compounds to interfere with Leukointegrin/CAM interactions but not other integrin-ligand binding events, a compound can be tested for its ability to antagonize cell bound fibronectin receptor in its interaction with purified fibronectin. Compounds that inhibit this fibronectin adhesion are not specific antagonists of the CD18, CD11a/ICAM-1 binding.
(§4) Description of Assay Protocol:
(§5) Ninety-six well plates are coated with either sICAM-1(40 μg/mL) or fibronectin (100 μg/mL) in Diluting buffer for 1 h at room temperature. Added to the wells are 100 μL of the appropriately diluted test compound or 100 μL of RPMI with 15% fetal bovine serum as a control. SKW3 cells, which express CD18, CD11a and VLA4 (Dustin, M.; et al., J. Exp. Med. 1987, 165, 672-692) are washed and suspended to a concentration of 10^6 cells/mL in RPMI with 15% fetal bovine serum. Immediately before adding the cells to the wells, cells are stimulated with the phorbol ester 12-myristate 13-acetate (PMA) for a final concentration of […]. 100 μL of cells are then added to the wells resulting in a final concentration of […]. The plates are incubated for 2 h at 37° C. Unbound or loosely bound cells are gently washed away with RPMI.
(§6) Data are reported as the concentration or concentration range (in μM) at which 50% of binding is inhibited.

[3] = tested on: cell bound fibronectin receptor (VLA4) with fibronectin, SKW3 cells; assay: Inhibition of SKW3 cell binding to fibronectin (selectivity counter-assay); type: cell-based, human; conditions: for IC50: Homo sapiens, read-out: Assay to Detect SKW3 Cells Binding to FIBRONECTIN IC50
Source text: as §1, §2, §3, §4, §5, §6

[4] = tested on: LFA-1 dependent aggregation of JY cells; assay: JY cell homotypic aggregation assay (PMA-stimulated); type: cell-based, human; conditions: Homo sapiens
Source text: This aggregation can be enhanced by the addition of phorbol esters. […] Thus, the extent of LFA-1-dependent binding may be determined by assessing the extent of spontaneous or phorbol ester-dependent aggregate formation.
An agent which interferes with LFA-1 -dependent aggregation can be identified through the use of an assay capable of determining whether the agent interferes with either spontaneous, or phorbol ester-dependent aggregation of Epstein-Barr virus transformed cells. It is preferable to employ cells of the JY cell line (Terhost, L; et aL, Proc. Natl. Acad. Sci. USA, 1976, 73, 910) for the homotypic aggregation assay. This assay, capable of measuring LFA-1 dependent aggregation, may be employed to identify agents which act as antagonists to the LFA-1 dependent aggregation. Such agents may act by impairing the ability of either LFA-1 or ICAM-1 to mediate aggregation. Thus, agents may be examined to directly determine if they are antagonists of LFA-1 aggregation.
as §4
JY cells are cultured in RPMI 1640 culture medium supplemented with 10% fetal calf serum and 50 μg/mL gentamycin. The cells are cultured at 37° C. in an atmosphere of 5% CO2 at a relative humidity of 95%. JY cells used in this assay are washed two times with RPMI 1640 medium containing 5 mM HEPES buffer and resuspended to a concentration of 2·10^6 cells/mL. Added to flat-bottomed, 96-well microtiter plates are 50 μL of test compound diluted in complete medium, 50 μL of complete medium with or without purified monoclonal antibodies (negative and positive controls for inhibition, respectively), 50 μL of complete medium containing 200 ng/mL of the phorbol ester phorbol myristate acetate (PMA) and 100 μL of cells at a concentration of 2·10^6 cells/mL in complete medium. This yields a final concentration of […] PMA and 2·10^5 cells/well. Cells are allowed to settle spontaneously, and the degree of aggregation is scored at various time points. […] This procedure has been described by Rothlein, R. R.; et al., J. Exp. Med. 1986, 163, 1132-1149. This paper also reported that antibody to LFA-1 is capable of inhibiting the formation of aggregates.
as §6

[5] = values marked e approximated from incomplete dose-response curve
[6] = SKW3, values marked c: no inhibition observed up to highest dose
[7] = values marked c: no inhibition observed up to highest dose
[8] = No inh = no inhibition observed up to highest dose, exact quantification not always possible due to intrinsic toxicity

T1 sequence (P20701 26-1170): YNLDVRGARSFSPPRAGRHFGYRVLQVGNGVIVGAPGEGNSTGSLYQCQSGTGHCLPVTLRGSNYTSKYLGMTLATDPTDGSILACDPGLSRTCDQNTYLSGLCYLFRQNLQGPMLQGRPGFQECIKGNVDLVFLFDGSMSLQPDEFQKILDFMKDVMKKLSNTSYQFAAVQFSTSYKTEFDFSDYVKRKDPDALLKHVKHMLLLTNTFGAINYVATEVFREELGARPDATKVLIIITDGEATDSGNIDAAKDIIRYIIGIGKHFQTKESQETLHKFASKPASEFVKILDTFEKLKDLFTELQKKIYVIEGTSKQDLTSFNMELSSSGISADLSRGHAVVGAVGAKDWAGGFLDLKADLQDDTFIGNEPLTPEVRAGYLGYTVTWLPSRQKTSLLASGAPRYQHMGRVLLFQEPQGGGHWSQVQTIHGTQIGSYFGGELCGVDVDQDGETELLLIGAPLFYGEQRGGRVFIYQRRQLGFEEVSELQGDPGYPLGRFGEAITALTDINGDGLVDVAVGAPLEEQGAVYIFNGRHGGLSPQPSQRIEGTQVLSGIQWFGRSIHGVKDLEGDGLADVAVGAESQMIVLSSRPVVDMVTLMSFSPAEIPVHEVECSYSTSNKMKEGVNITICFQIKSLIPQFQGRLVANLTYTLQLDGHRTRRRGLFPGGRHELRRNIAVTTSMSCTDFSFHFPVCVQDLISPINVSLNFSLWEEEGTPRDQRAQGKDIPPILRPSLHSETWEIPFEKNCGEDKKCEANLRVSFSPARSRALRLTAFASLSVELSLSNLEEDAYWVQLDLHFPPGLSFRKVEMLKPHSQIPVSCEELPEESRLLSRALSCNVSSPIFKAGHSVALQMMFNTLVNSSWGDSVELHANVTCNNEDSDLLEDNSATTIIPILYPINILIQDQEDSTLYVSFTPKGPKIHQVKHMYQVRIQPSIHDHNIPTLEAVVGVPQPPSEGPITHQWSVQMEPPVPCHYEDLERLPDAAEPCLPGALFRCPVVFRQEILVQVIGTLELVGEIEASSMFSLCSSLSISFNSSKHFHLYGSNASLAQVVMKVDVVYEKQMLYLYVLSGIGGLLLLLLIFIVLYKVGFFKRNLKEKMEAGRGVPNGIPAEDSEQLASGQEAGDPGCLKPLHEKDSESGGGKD
T1 sequence (P05107 23-769): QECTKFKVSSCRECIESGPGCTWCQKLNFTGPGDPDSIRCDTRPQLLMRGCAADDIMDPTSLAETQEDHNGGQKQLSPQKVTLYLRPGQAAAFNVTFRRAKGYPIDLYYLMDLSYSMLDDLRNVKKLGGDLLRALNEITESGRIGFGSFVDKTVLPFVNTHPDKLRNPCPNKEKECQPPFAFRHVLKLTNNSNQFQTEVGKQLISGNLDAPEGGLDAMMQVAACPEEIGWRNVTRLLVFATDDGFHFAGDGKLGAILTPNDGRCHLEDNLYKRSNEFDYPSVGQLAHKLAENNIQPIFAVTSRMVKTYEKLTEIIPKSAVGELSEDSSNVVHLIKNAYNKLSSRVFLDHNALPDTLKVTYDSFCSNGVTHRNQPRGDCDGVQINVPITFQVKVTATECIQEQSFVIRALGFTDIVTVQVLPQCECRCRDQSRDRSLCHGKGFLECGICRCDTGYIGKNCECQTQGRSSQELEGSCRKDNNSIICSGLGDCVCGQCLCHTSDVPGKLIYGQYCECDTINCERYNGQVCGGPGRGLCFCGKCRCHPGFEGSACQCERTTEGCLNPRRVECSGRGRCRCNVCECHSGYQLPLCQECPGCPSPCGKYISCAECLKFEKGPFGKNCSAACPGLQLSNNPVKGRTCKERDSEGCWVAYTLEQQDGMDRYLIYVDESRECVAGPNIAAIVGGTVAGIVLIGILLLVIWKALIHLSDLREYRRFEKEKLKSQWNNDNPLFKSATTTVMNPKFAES

Compound | Kd [1, 5] | IC50 [2, 6] | Assay to Detect SKW3 Cells Binding to FIBRONECTIN IC50 [3, 7] | IC50 [4] | Cellular Toxicity Assay MTT LD50 (SKW3 cells) | Kd [1] | IC50 ([2]; SKW3) | Assay to Detect SKW3 Cells Binding to FIBRONECTIN IC50 [3, 8] | IC50 [3, 6] | IC50 ([3]; SKW3, No inh = no inhibition observed up to highest dose, exact quantification not always possible due to intrinsic toxicity)
C[C@@]1(Cc2ccc(Br)cc2)C(=O)N(c2cc(Cl)cc(Cl)c2)C(=O)N1CCCCCCl [Example 121] | 0.21 µM | 0.8 to 2 µM | No inh^c | 25 µM | <11 µM | – | – | – | – | –
C[C@@]1(Cc2ccc(Br)cc2)C(=O)N(c2cc(Cl)cc(Cl)c2)C(=O)N1Cc1ccc(C(=N)N)cc1 [Example 242] | – | – | – | 2.8 µM | 16 to 32 µM | 0.4 µM | 10 to 25 µM | No inh^c | – | –
C[C@@]1(Cc2ccc(Br)cc2)C(=O)N(c2cc(Cl)cc(Cl)c2)C(=O)N1Cc1ccc(C(=O)O)cc1 [Example 228] | – | – | – | 1.6 µM | 50 to 100 µM | 0.41 µM | 12 to 25 µM | No inh^c | – | –
C[C@@]1(Cc2ccc(Br)cc2)C(=O)N(c2cc(Cl)cc(Cl)c2)C(=O)N1CCCCNC(=N)N [Example 263] | – | – | – | 0.8 µM | 20 to 40 µM | 0.09 µM | 0.8 to 1.6 µM | No inh^c | – | –
CN1C(=O)N(c2cc(Cl)cc(Cl)c2)C(=O)[C@@H]1Cc1ccccc1 [Example 87] | 2 µM | 50 to 100 µM | – | 50 µM | >500 µM | – | – | – | > 100 µM | –
CC(C)N1C(=O)N(c2cc(Cl)cc(Cl)c2)C(=O)C1Cc1ccc(Br)cc1 (centres unmarked) [Example 34] | 0.13 µM | 6 µM | No inh^c | 1.8 µM | 200 to 400 µM | – | – | – | – | –
CC(=O)OCCN1C(=O)N(c2cc(Cl)cc(Cl)c2)C(=O)[C@@]1(C)Cc1ccc(Br)cc1 [Example 260] | – | – | – | 1.1 µM | 200 to 400 µM | 0.07 µM | 19 to 38 µM | No inh^c | – | –
C[C@@]1(Cc2ccc(Br)cc2)C(=O)N(c2cc(Cl)cc(Cl)c2)C(=O)N1CCCCS(=O)(=O)O [Example 250] | – | – | – | 0.1 µM | 100 to 200 µM | 0.04 µM | < 1 µM | No inh^c | – | –
C[C@@]1(Cc2ccc(Br)cc2)C(=O)N(c2cc(Cl)cc(Cl)c2)C(=O)N1C[C@H](O)c1ccccc1 [Example 132] | 0.22 µM | 5 µM | No inh^c | 2.4 µM | 200 to 400 µM | – | – | – | – | –
C[C@@]1(Cc2ccc(Br)cc2)C(=O)N(c2cc(Cl)cc(Cl)c2)C(=O)N1C(=O)[C@H]1CCCN1 [Example 235] | – | – | – | 1.6 µM | 100 to 200 µM | 0.33 µM | 9 µM | No inh^c | – | –
CN1C(=O)N(c2cc(Cl)cc(Cl)c2)C(=O)[C@@]1(C)Cc1ccccc1 [Example 266] | – | – | – | 3 µM | >500 µM | 0.14 µM | 25 to 50 µM | – | – | > 50 µM
CN1C(=O)N(c2cc(C(F)(F)F)cc(C(F)(F)F)c2)C(=O)[C@@]1(C)Cc1ccc(Br)cc1 [Example 100] | 0.19 µM | 8 to 15 µM | – | 0.7 µM | >400 µM | – | – | – | > 60 µM | –
C[C@@]1(Cc2ccc(Br)cc2)C(=O)N(c2cc(Cl)cc(Cl)c2)C(=O)N1CCCCC#N [Example 256] | – | – | – | 0.4 µM | 150 to 300 µM | 0.12 µM | 0.8 to 2 µM | No inh^c | – | –
CCCC1(Cc2ccccc2)C(=O)N(c2cc(Cl)cc(Cl)c2)C(=O)N1C (centres unmarked) [Example 94] | 0.74 µM | 50 to 100 µM | No inh^c | 25 µM | 200 µM | – | – | – | – | –
CC(=O)N1C(=O)N(c2cc(Cl)cc(Cl)c2)C(=O)[C@@]1(C)Cc1ccc([N+](=O)[O-])cc1 [Example 135] | 0.2 µM | 25 µM | No inh^c | 1.7 µM | >400 µM | – | – | – | – | –
CC(C)N1C(=O)N(c2cc(Cl)cc(Cl)c2)C(=O)C1(C)Cc1ccc(Br)cc1 (centres unmarked) [Example 141] | 0.22 µM | 15 µM | – | 0.1 µM | 300 µM | – | – | – | > 15 µM | –
Cc1cc(Br)cc(C)c1C[C@]1(C)C(=O)N(c2cc(Cl)cc(Cl)c2)C(=O)N1C [Example 122] | 0.13 µM | 12 to 25 µM | No inh^c | 1.8 µM | 200 to 400 µM | – | – | – | – | –
CN1C(=O)N(c2cc(Cl)cc(Cl)c2)C(=O)C1(C)Cc1ccc(Br)cc1O (centres unmarked) [Example 248] | – | – | – | 0.7 µM | 50 to 100 µM | 0.37 µM | 9 to 18 µM | No inh^c | – | –
CCC1(Cc2ccc(Br)cc2)C(=O)N(c2cc(Cl)cc(Cl)c2)C(=O)N1C (centres unmarked) [Example 172] | 0.17 µM | 1.8 µM | No inh^c | 0.7 µM | 165 µM | – | – | – | – | –
C[C@@]1(Cc2ccc(Br)cc2)C(=O)N(c2cc(Cl)cc(Cl)c2)C(=O)N1Cc1ccccn1 [Example 110] | 0.15 µM | 25 µM | No inh^c | 9 µM | 200 to 400 µM | – | – | – | – | –
C[C@@]1(Cc2ccc(Br)cc2)C(=O)N(c2cc(Cl)cc(Cl)c2)C(=O)N1CCCS(=O)(=O)O [Example 249] | – | – | – | 0.4 µM | 200 to 400 µM | 0.16 µM | < 1 µM | No inh^c | – | –
Cc1ccc(C[C@@]2(C)NC(=O)N(c3cc(Cl)cc(Cl)c3)C2=O)cc1 [Example 119] | – | < 3 µM | No inh^c | 0.05 µM | >400 µM | – | – | – | – | –
C[C@@]1(Cc2ccc(Br)cc2)C(=O)N(c2cc(Cl)cc(Cl)c2)C(=O)N1C(=O)C1CCCN1 (some centres unmarked) [Example 234] | – | – | – | 1.6 µM | 100 to 200 µM | – | 5 to 10 µM | No inh^c | – | –
